We go through three compounds from patent publication US7955596B2 (priority 2003, dated 2011).

In assay [1] the test system is B. anthracis strain 34F2. The class given is cell-based.
Assay [2] deals with B. anthracis strain 34F2. The class given is cell-based. The source holds these as a separate data set.
For a further assay, the system named is B. subtilis. The note with it: cited from earlier work.
Assay [3] has as its system AI-2-mediated quorum-sensing. Conditions: cited from earlier work.
For assay [4], the system named is B. anthracis strain RBAF140. The class given is cell-based.
Assay [5] deals with AI-1 and AI-2-mediated quorum-sensing pathways. Conditions: cited from earlier work.
Assay [6] concerns pag-lacZ (pagA protective antigen gene transcription). The class given is cell-based, B. anthracis.
The subject of assay [7] is B. anthracis protective antigen (PA). Type of assay: cell-based.
Assay [8] relates to AI-2-mediated quorum-sensing. Conditions: cited from earlier work. This is another data set of the same source.

Where two headings read alike, the source gives them in different places.

Regarding `O=C1C=C(Br)/C(=C/Br)O1` [furanone 4, 4-bromo-5-(bromomethylene)-2(5H)-furanone], in the assay with B. anthracis strain 34F2 [1], the “Inhibitory effect compared among furanones 1, 2 and 4” value is listed as “most potent inhibitory effect”.
As to `CCCCC1=CC(=C(Br)Br)OC1=O` [furanone 2, 3-butyl-5-(dibromomethylene)-2-(5H)-furanone], the “Inhibitory effect compared among furanones 1, 2 and 4” value with B. anthracis strain 34F2 [1] was “least”.
On to `CCCCC1=C(Br)/C(=C/Br)OC1=O` [furanone 1, (5Z)-4-bromo-5-(bromomethylene)-3-butyl-2(5H)-furanone], for which the “Bacterial growth (OD600) with increasing concentration, log phase cells” value with B. anthracis strain 34F2 [2] is “increasingly retarded”. For the same compound, in the assay on B. subtilis, the Biofilm formation entry is “inhibit” and the Swarming result is given as “inhibit”. The AI-2-mediated quorum-sensing result in assay [3] is “inhibit”. Also, in [4], the “Growth of RBAF140 (OD600)” value is “significant inhibition of growth”. In addition, the “AI-1 and AI-2-mediated quorum-sensing pathways” value in [5] is “directly inhibit”. Moreover, the “Expression of pag-lacZ (β-gal activity)” value in assay [6] was “significantly reduced”. Further, in assay [7], the “PA expression (Western blot)” value is “significant reduction”. Moreover, the AI-2-mediated quorum-sensing result in assay [8] is “inhibit”. Further, in the assay on B. anthracis strain 34F2 [1], the “B. anthracis growth (OD600)” value was “dramatically inhibited”, the “Bacterial growth (OD600)” value is on record as “completely inhibited” and the “Bacterial growth (OD600) with increasing concentration” value is listed as “increasingly retarded”.
